# Reference: patent US10286000B2, “Retinoid X receptor-gamma agonists and retinoid X receptor-alpha antagonists for treatment of cancer” (St. Jude Children's Research Hospital, Inc., priority 2013, dated 2019)
# Tests used:
# [1] = system: NKG2DL mRNA in colon cancer cell lines; test: qRT-PCR of NKG2DL mRNA; format: cell-based, human; conditions: relative to DMSO
# Procedure: (§1) For qRT-PCR, total RNA was extracted from untreated or drug-treated tumor cells by using the RNA Clean & Concentrator (Zymo Research). All cDNA was generated by using the SuperScript VILO cDNA Synthesis kit (Life Technologies) and diluted 10-fold for analysis using the 7900HT Fast Real-time PCR System (Applied Biosystems). The data were calculated as the CT of target genes normalized to the CT of GAPDH of each sample. […] Differentially expressed transcripts were analyzed by ANOVA on Spotfire program.
# [2] = system: colon cancer cell lines (NKL or primary NK cells as effectors); test: NK cell cytotoxicity assay (BATDA release); format: cell-based, human
# Procedure: (A) NKL cells express high level of NKG2D but not NKp30 on their cell surface as determined by flow cytometry. Results are representative of two independent experiments. Therefore, the use of anti-NKp30 in NKL killing assay described in 2 F below was considered as a non-specific IgG blockade relative to anti-NKG2D. […] (D) HCT116 cells transduced with control or a ULBP2-overexpressing lentiviral construct were analyzed by flow cytometry for the surface expression of ULBP2. Results are representative of two independent experiments. (E) NK cell cytotoxicity on the ULBP2-transduced HCT116 cells was determined by a BATDA release assay using NKL cells as effector cells (n=3). (F) DMSO- or SPIR-treated (3 days) HCT116 cells were subjected to a BATDA release assay using NKL cells in the presence or absence of anti-NKp30 or anti-NKG2D antibodies (10 μg/mL) (n=3). (G) DMSO- or SPIR-treated (3 days) HCT116 cells were subjected to a BATDA release assay using IL-2 (10 U/ml)-primed primary NK cells isolated from healthy donors at various E:T ratios in the presence or absence of anti-NKp30 or anti-NKG2D antibodies (10 μg/mL) (n=3). * P<0.05, ** P<0.005, *** P<0.0001.
# The results were calculated as follows: […]
# [3] = system: Chk1 (Ser-317 phosphorylation); test: Phospho-Chk1 ELISA; format: cell-based, human; conditions: HCT116, 0 h to 24 h
# Procedure: Ser-317 phosphorylation of Chk1 was determined by using the PathScan phosphor-Chk1 (Ser317) Sandwich ELISA kit (Cell Signaling). Data were normalized to the total Chk1 levels obtained from an ELISA with anti-Chk1 (total) used as the detection antibody.
# [4] = system: TIMP2 and TIMP3; test: qRT-PCR of TIMP2 and TIMP3 mRNA; format: cell-based, human; conditions: CAL27 and all the colon cancer cell lines, 56 μM 3 days
# Procedure: (§2) The number of cells that invaded the ECM was determined after 24 h. Data are expressed as percentage change in tumor invasion relative to that of DMSO-treated cells (n=3). (D) Wound healing by DMSO- and SPIR-treated HCT116, HT29, and CAL27 cells was compared. Data are calculated as the percentage change in distance of migration relative to that of DMSO-treated cells (n=3). […] Tumor xenografts and lung metastases were detected by bioluminescence imaging on day 25. Data are shown as the average total flux (photons/second)±standard deviation (n=8). (F) The lung metastases (arrows) were confirmed by examining lung tissue sections. * P≤0.05, ** P<0.01, *** P<0.005, **** P<0.0001.
# as §1, with “sample. Primer sequences of the target genes were: MICA-F: 5′-[…]-3′, (SEQ ID NO: 14) MICA-R: 5′-[…]-[…]-3′, (SEQ ID NO: 15) MICB-F: 5′-[…]-3′, (SEQ ID NO: 16) MICB-R:5′-CCCTC-[…]-3′, (SEQ ID NO: 17), ULBP1-F:5′-[…]-3′, (SEQ ID NO: 18), ULBP1-R:5′-[…]-3′, (SEQ ID NO: 19), ULBP2-F:5′-[…]-3′, (SEQ ID NO: 20), ULBP2-R:5′-[…]-3′, (SEQ ID NO: 21), ULBP3-F:5′-[…]-TTCG-3′, (SEQ ID NO: 22), ULBP3-R:[…]-3′, (SEQ ID NO: 23), TIMP2-F:5′-[…]-[…]-3′, (SEQ ID NO: 24), TIMP2-R:[…]-3′, (SEQ ID NO: 25), TIMP3-F:5′-[…]-3′, (SEQ ID NO: 26), TIMP3-R:5′-[…]-[…]-3′ (SEQ ID NO: 27), GAPDH-F: 5′-[…]3′ (SEQ ID NO: 28), GAPDH-R: 5′-G-[…]-3′ (SEQ ID NO: 29).” for “sample.”
# [5] = system: HT29 xenografts, lung metastasis; test: lung metastasis model using HT29 cells; format: in vivo, NSG mice; conditions: i.p. twice a week for 3 weeks
# Procedure: as §2
# Luciferase-expressing HCT116 and HT29 cells were generated by lentiviral transduction of the cells with a CMV promoter-driven luciferase expression construct engineered from the pLL3.7 vector. […] Bioluminescence imaging was performed in a Xenogen imaging system to monitor tumor growth and the data were analyzed using Living Image software (Caliper LifeSciences). For the lung metastasis model using HT29 cells, lungs were harvested for bioluminescence imaging and then fixed in 10% neutral buffered formalin, paraffin embedded, sectioned, and stained with hematoxylin and eosin. A total of six lung sections at 100-μm intervals were collected for the observation of pulmonary nodules. […]
# [6] = system: MMP-1, 7, 10, 12, and 13 in CAL27 cells; test: RT-qPCR of MMP mRNA; format: cell-based, human; conditions: 3 days
# Excerpt: Data were normalized to GAPDH mRNA levels and presented as fold change relative to the mRNA expression in DMSO treated cells (n=3). * P<0.005, ** P<0.001.
# [7] = system: normal human lymphocytes; test: normal human lymphocytes: viability and NKG2DL expression; format: cell-based
compound,measurement,setting,value
"CC(=O)S[C@@H]1CC2=CC(=O)CC[C@]2(C)[C@H]2CC[C@@]3(C)[C@@H](CC[C@@]34CCC(=O)O4)[C@H]12 [SPIR, spironolactone]",NKG2DL mRNA levels,[1],increase in mRNA levels
same,susceptibility to primary NK cell-mediated lysis,"[2]; HT29 and SW480 cells, IL-2-primed primary NK cells",markedly enhanced
same,susceptibility to NKL lysis,"[2]; all colon cancer cell lines, SPIR 56 μM",significantly increased
same,Ser-317 phosphorylation of Chk1 (P-Chk1),[3],time-dependent increase
same,mRNA expression of TIMP2 and TIMP3,[4],significantly upregulated
same,lung metastasis,[5],significant reduction of lung metastasis
same,"expression of Matrix Metalloproteinases (MMP-1, MMP-7, MMP-10, MMP-12, MMP-13)",[6],downregulates expression
same,viability or NKG2DL expression of normal human lymphocytes,[7],no detrimental effect
